Results taken from US11802127B2, “3,4-dihydro-2,7-naphthyridine-1,6(2H,7H)-diones as MEK inhibitors” (Pfizer Inc., priority 2021, dated 2023).

Legend:
[1] = MDR1 LLC-PK1 and BCRP MDCKII Permeability Assay: permeability coefficient (Papp); assay type: in vitro ADME; conditions: MDCK, test article 1 μM, 37° C.
Summary of the method: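 Bidirectional (A to B, B to A) transport of test article (1 μM, 1% organic) across MDR1-transfected LLC-PK1 or BCRP-transfected MDCKII (canine P-gp knockout) monolayers, 2 h at 37° C., 5% CO2, in triplicate. Lucifer yellow monitored monolayer integrity. Concentrations measured by LC-MS/MS against labetalol internal standard.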

[2] = test system: ERK1/2(Thr202/Tyr204) phosphorylation (MEK-dependent) in A375 cells; assay: Cellular Phospho-p44/42 MAPK (Erk1/2) (Thr202/Tyr204) Assay; assay type: cell-based; conditions: Homo sapiens, A-375, 1-hour incubation, pERK1/2 (Thr202/Tyr204) In-Cell Western normalized to GAPDH
Summary of the method: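 A375 cells exposed 1 h to 10-point 1:3 dilutions (top 20–1 μM, 0.5% DMSO), then fixed and stained for pERK1/2 (Thr202/Tyr204) by In-Cell Western. Signal normalized to GAPDH per well; DMSO and 1 μM reference inhibitor define 0 and 100% inhibition.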

SMILES	Papp at 2 h, 1 μM [1] [×10⁻⁶ cm/s]	IC50 [2] [nM]
CCc1ccc(Nc2c3c(cc(=O)n2C)CCN(OCCO)C3=O)c(F)c1 [Example 14, 8-((4-ethyl-2-fluorophenyl)amino)-2-(2-hydroxyethoxy)-7-methyl-3,4-dihydro-2,7-naphthyridine-1,6(2H,7H)-dione]	31.1	15
CSc1ccc(Nc2c3c(cc(=O)n2C)CCN(OCCO)C3=O)c(F)c1 [Example 6, 8-((2-fluoro-4-(methylthio)phenyl)amino)-2-(2-hydroxyethoxy)-7-methyl-3,4-dihydro-2,7-naphthyridine-1,6(2H,7H)-dione]	32.1	8
Cn1c(Nc2ccc(Br)cc2F)c2c(cc1=O)CCN(OCCO)C2=O [Example 7, 8-((4-bromo-2-fluorophenyl)amino)-2-(2-hydroxyethoxy)-7-methyl-3,4-dihydro-2,7-naphthyridine-1,6(2H,7H)-dione]	34.5	23
Cc1c2c(c(Nc3ccc(Br)cc3F)n(C)c1=O)C(=O)N(OCCO)CC2 [Example 36, 8-((4-bromo-2-fluorophenyl)amino)-2-(2-hydroxyethoxy)-5,7-dimethyl-3,4-dihydro-2,7-naphthyridine-1,6(2H,7H)-dione]	31.1	30
Cn1c(Nc2ccc(I)cc2F)c2c(cc1=O)CCN(OCCO)C2=O [Example 8, 8-((2-fluoro-4-iodophenol)amino)-2-(2-hydroxyethoxy)-7-methyl-3,4-dihydro-2,7-naphthyridine-1,6(2H,7H)-dione]	34.2	1
Cn1c(Nc2ccc(OC(F)F)cc2F)c2c(cc1=O)CCN(OCCO)C2=O [Example 22, 8-((4-(difluoromethoxy)-2-fluorophenyl)amino)-2-(2-hydroxyethoxy)-7-methyl-3,4-dihydro-2,7-naphthyridine-1,6(2H,7H)-dione]	24.6	21
